Data published in ChEMBL document CHEMBL1681651, “A broad spectrum anticancer nucleoside with selective toxicity against human colon cells in vitro” (2011).

Experiments:
Type in all cases: functional
HCT-15 = assay: Growth inhibition of human HCT15 cells assessed as cell growth at 1 uM after 48 hrs by SRB assay; conditions: HCT-15, 48 h, read-out: Activity
HOP-92 = assay: Growth inhibition of human HOP92 cells assessed as cell growth at 1 uM after 48 hrs by SRB assay; conditions: HOP-92, 48 h, read-out: Activity
SF-295 [1] = assay: Growth inhibition of human SF295 cells assessed as cell growth at 1 uM after 48 hrs by SRB assay; conditions: SF-295, 48 h, read-out: Activity
T47D = assay: Growth inhibition of human T47D cells assessed as cell growth at 10 uM after 48 hrs by SRB assay; conditions: read-out: Activity
COLO 205 = assay: Growth inhibition of human COLO205 cells after 48 hrs by […] growth inhibition assay; conditions: COLO 205, 48 h
IGROV-1 = assay: Growth inhibition of human IGROV1 cells after 48 hrs by […] growth inhibition assay; conditions: IGROV-1, 48 h
MDA-MB-231 = assay: Growth inhibition of human MDA-MB-231 cells assessed as cell growth at 1 mM after 48 hrs by SRB assay; conditions: MDA-MB-231, 48 h, read-out: Activity
DU-145 = assay: Growth inhibition of human DU145 cells assessed as cell growth at 0.1 uM after 48 hrs by SRB assay; conditions: DU-145, 48 h, read-out: Activity
SN12C = assay: Growth inhibition of human SN12C cells assessed as cell growth at 1 uM after 48 hrs by SRB assay; conditions: read-out: Activity
M14 = assay: Growth inhibition of human M14 cells assessed as cell growth at 10 uM after 48 hrs by SRB assay; conditions: M14, 48 h, read-out: Activity
NCI-H522 [2] = assay: Growth inhibition of human NCI-H522 cells assessed as cell growth at 10 uM after 48 hrs by SRB assay; conditions: NCI-H522, 48 h, read-out: Activity
CAKI-1 [3] = assay: Growth inhibition of human Caki1 cells after 48 hrs by […] growth inhibition assay; conditions: CAKI-1, 48 h
NCI-H23 [4] = assay: Growth inhibition of human NCI-H23 cells assessed as cell growth at 100 uM after 48 hrs by SRB assay; conditions: NCI-H23, 48 h, read-out: Activity
CCRF-CEM [5] = assay: Growth inhibition of human CCRF-CEM cells assessed as cell growth at 0.1 uM after 48 hrs by SRB assay; conditions: read-out: Activity
MDA-MB-435 = assay: Growth inhibition of human MDA-MB-435 cells after 48 hrs by SRB assay; conditions: MDA-MB-435, 48 h
NCI-H522 [6] = assay: Growth inhibition of human NCI-H522 cells assessed as cell growth at 0.1 uM after 48 hrs by SRB assay; conditions: NCI-H522, 48 h, read-out: Activity
A498 [7] = assay: Growth inhibition of human A498 cells after 48 hrs by […] growth inhibition assay; conditions: A498, 48 h
CCRF-CEM [8] = assay: Growth inhibition of human CCRF-CEM cells assessed as cell growth at 1 mM after 48 hrs by SRB assay; conditions: read-out: Activity
LOX IMVI [9] = assay: Growth inhibition of human LOXIMVI cells assessed as cell growth at 1 uM after 48 hrs by SRB assay; conditions: read-out: Activity
SK-OV-3 = assay: Growth inhibition of human SKOV3 cells assessed as cell growth at 1 uM after 48 hrs by SRB assay; conditions: SK-OV-3, 48 h, read-out: Activity
786-0 = assay: Growth inhibition of human 786-0 cells assessed as cell growth at 1 uM after 48 hrs by SRB assay; conditions: 786-0, 48 h, read-out: Activity
SF-295 [10] = assay: Growth inhibition of human SF295 cells assessed as cell growth at 1 mM after 48 hrs by SRB assay; conditions: SF-295, 48 h, read-out: Activity
NCI-H23 [11] = assay: Growth inhibition of human NCI-H23 cells assessed as cell growth at 1 mM after 48 hrs by SRB assay; conditions: NCI-H23, 48 h, read-out: Activity
SNB-75 = assay: Growth inhibition of human SNB75 cells assessed as cell growth at 1 uM after 48 hrs by SRB assay; conditions: SNB-75, 48 h, read-out: Activity
UO-31 = assay: Growth inhibition of human UO31 cells assessed as cell growth at 1 uM after 48 hrs by SRB assay; conditions: UO-31, 48 h, read-out: Activity
MCF7 = assay: Growth inhibition of human MCF7 cells after 48 hrs by […] growth inhibition assay; conditions: MCF7, 48 h
LOX IMVI [12] = assay: Growth inhibition of human LOXIMVI cells after 48 hrs by […] growth inhibition assay
A498 [13] = assay: Growth inhibition of human A498 cells assessed as cell growth at 0.1 uM after 48 hrs by SRB assay; conditions: A498, 48 h, read-out: Activity
SF-539 = assay: Growth inhibition of human SF539 cells assessed as cell growth at 1 uM after 48 hrs by SRB assay; conditions: SF-539, 48 h, read-out: Activity
RXF 393 = assay: Growth inhibition of human RXF393 cells assessed as cell growth at 10 uM after 48 hrs by SRB assay; conditions: RXF 393, 48 h, read-out: Activity
CAKI-1 [14] = assay: Growth inhibition of human Caki1 cells assessed as cell growth at 1 mM after 48 hrs by SRB assay; conditions: CAKI-1, 48 h, read-out: Activity
OVCAR-4 = assay: Growth inhibition of human OVCAR4 cells assessed as cell growth at 0.1 uM after 48 hrs by SRB assay; conditions: OVCAR-4, 48 h, read-out: Activity
[15] = read-out: LC50 (the source's name)
[16] = read-out: pLC50 (the source's name) (converted)

For `CNC(=O)NC[C@H]1O[C@@H](n2cnc3c(NC(=O)Nc4ccccc4)ncnc32)[C@H](O[Si](C)(C)C(C)(C)C)[C@@H]1O[Si](C)(C)C(C)(C)C`, the growth at 1 µM (HCT-15) was 106%, the growth at 1 µM (HOP-92) was 80% and the growth at 1 µM (SF-295 [1]) was 107%. For the same compound, the growth at 10 µM (T47D) was 92%, the GI50 (COLO 205; read-out: GI50) was 1.89 µM and the CC50 (COLO 205; [15]) was 5.98 µM. The TGI (COLO 205; read-out: TGI) was 3.36 µM, the GI50 (COLO 205; read-out: pGI50 (converted)) was 1.91 µM and the CC50 (COLO 205; [16]) was 6.03 µM. The TGI (COLO 205; read-out: pTGI (converted)) was 3.39 µM, the GI50 (IGROV-1; read-out: GI50) was 2.74 µM and the CC50 (IGROV-1; [15]) was > 100 µM. For the same compound, the TGI (IGROV-1; read-out: TGI) was 7.76 µM, the GI50 (IGROV-1; read-out: pGI50 (converted)) was 2.75 µM and the CC50 (IGROV-1; [16]) was > 100 µM. For the same compound, the TGI (IGROV-1; read-out: pTGI (converted)) was 7.76 µM, the growth at 1000 µM (MDA-MB-231) was -76% and the growth at 0.1 µM (DU-145) was 103%. For the same compound, the growth at 1 µM (SN12C) was 100%, the growth at 10 µM (M14) was 105% and the growth at 10 µM (NCI-H522 [2]) was 90%. For the same compound, the GI50 (CAKI-1 [3]; read-out: GI50) was 2.7 µM, the CC50 (CAKI-1 [3]; [15]) was > 100 µM and the TGI (CAKI-1 [3]; read-out: TGI) was 7.93 µM. The GI50 (CAKI-1 [3]; read-out: pGI50 (converted)) was 2.69 µM, the CC50 (CAKI-1 [3]; [16]) was > 100 µM and the TGI (CAKI-1 [3]; read-out: pTGI (converted)) was 7.94 µM. It also gave a growth at 100 µM (NCI-H23 [4]) of -5%, a growth at 0.1 µM (CCRF-CEM [5]) of 104% and a GI50 (MDA-MB-435; read-out: GI50) of 3.41 µM. For the same compound, the LC50 (MDA-MB-435; read-out: LC50) was > 100 µM, the TGI (MDA-MB-435; read-out: TGI) was 29.1 µM and the GI50 (MDA-MB-435; read-out: pGI50 (converted)) was 3.39 µM. The LC50 (MDA-MB-435; read-out: pLC50 (converted)) was > 100 µM, the TGI (MDA-MB-435; read-out: pTGI (converted)) was 28.8 µM and the growth at 0.1 µM (NCI-H522 [6]) was 92%. The GI50 (A498 [7]; read-out: GI50) was 2.03 µM, the CC50 (A498 [7]; [15]) was 19.5 µM and the TGI (A498 [7]; read-out: TGI) was 4.96 µM. The GI50 (A498 [7]; read-out: pGI50 (converted)) was 2.04 µM, the CC50 (A498 [7]; [16]) was 19.5 µM and the TGI (A498 [7]; read-out: pTGI (converted)) was 5.01 µM. For the same compound, the growth at 1000 µM (CCRF-CEM [8]) was 4%, the growth at 1 µM (LOX IMVI [9]) was 101% and the growth at 1 µM (SK-OV-3) was 113%. For the same compound, the growth at 1 µM (786-0) was 113%, the growth at 1000 µM (SF-295 [10]) was -7% and the growth at 1000 µM (NCI-H23 [11]) was -53%. The growth at 1 µM (SNB-75) was 95%, the growth at 1 µM (UO-31) was 97% and the GI50 (MCF7; read-out: GI50) was 2.69 µM. For the same compound, the CC50 (MCF7; [15]) was > 100 µM, the TGI (MCF7; read-out: TGI) was 19.3 µM and the GI50 (MCF7; read-out: pGI50 (converted)) was 2.69 µM. The CC50 (MCF7; [16]) was > 100 µM, the TGI (MCF7; read-out: pTGI (converted)) was 19.5 µM and the GI50 (LOX IMVI [12]; read-out: GI50) was 1.82 µM. The CC50 (LOX IMVI [12]; [15]) was 6.21 µM, the TGI (LOX IMVI [12]; read-out: TGI) was 3.36 µM and the GI50 (LOX IMVI [12]; read-out: pGI50 (converted)) was 1.82 µM. For the same compound, the CC50 (LOX IMVI [12]; [16]) was 6.17 µM, the TGI (LOX IMVI [12]; read-out: pTGI (converted)) was 3.39 µM and the growth at 0.1 µM (A498 [13]) was 92%. For the same compound, the growth at 1 µM (SF-539) was 100%, the growth at 10 µM (RXF 393) was 111% and the growth at 1000 µM (CAKI-1 [14]) was -33%. For the same compound, the growth at 0.1 µM (OVCAR-4) was 106%.
`CNC(=O)OC[C@H]1O[C@@H](n2cnc3c(NC(=O)Nc4ccccc4)ncnc32)[C@H](O[Si](C)(C)C(C)(C)C)[C@@H]1O[Si](C)(C)C(C)(C)C` showed a growth at 10 µM (T47D) of 116%, a growth at 10 µM (M14) of 102% and a growth at 10 µM (NCI-H522 [2]) of 52.6%. The growth at 10 µM (RXF 393) was 94.2%.
